From patent publication US20220041641A1, “QUATERNARY AMMONIUM SALTS AS INHIBITORS OF TRIMETHYLAMINE PRODUCTION” (Senda Biosciences, Inc., priority 2018, published 2022)

Assays:
[1] = biological target: CutC from Proteus mirabilis (Proteus mirabilis, UniProt B4EYG1); assay: Cell-based assay for TMA production from a native producer (P. mirabilis); settings: d9-TMA from 1 mM d9-choline, 5 h, 37° C.; value 10 given when no fit or % TMA remaining at 10 μM higher than 15%; read-out: Average IC50 Whole cell P. mirabilis
Sequence of CutC from Proteus mirabilis (B4EYG1 entry or part of it): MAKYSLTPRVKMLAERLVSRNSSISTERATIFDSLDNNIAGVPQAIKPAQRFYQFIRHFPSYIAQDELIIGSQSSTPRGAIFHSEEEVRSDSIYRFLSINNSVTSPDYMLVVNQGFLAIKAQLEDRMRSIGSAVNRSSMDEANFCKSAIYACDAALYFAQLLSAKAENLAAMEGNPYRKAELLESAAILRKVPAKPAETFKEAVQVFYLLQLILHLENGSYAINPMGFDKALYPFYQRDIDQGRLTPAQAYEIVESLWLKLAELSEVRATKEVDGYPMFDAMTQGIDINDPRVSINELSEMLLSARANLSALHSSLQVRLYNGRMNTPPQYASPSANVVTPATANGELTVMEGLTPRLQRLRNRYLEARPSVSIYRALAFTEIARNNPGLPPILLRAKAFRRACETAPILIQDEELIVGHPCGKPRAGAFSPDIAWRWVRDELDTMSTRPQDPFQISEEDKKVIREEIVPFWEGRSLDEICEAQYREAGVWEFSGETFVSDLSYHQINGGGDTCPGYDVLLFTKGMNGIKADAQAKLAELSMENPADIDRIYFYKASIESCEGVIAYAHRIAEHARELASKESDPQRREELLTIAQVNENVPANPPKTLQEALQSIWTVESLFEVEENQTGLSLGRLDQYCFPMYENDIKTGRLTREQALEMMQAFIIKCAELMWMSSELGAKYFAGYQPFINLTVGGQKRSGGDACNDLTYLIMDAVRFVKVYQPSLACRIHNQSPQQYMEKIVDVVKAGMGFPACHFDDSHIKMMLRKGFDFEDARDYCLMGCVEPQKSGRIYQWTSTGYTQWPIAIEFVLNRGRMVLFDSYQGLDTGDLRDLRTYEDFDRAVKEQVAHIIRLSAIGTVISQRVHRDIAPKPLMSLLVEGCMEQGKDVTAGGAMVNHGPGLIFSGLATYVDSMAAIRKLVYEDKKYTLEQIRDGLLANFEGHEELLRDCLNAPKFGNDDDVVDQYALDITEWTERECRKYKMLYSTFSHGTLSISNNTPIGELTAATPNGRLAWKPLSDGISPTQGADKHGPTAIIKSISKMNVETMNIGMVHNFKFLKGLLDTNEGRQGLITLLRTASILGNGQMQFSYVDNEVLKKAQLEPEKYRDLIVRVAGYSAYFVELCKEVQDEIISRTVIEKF
Sequence of CutC from Proteus mirabilis (B4EYG0 entry or part of it, further chain): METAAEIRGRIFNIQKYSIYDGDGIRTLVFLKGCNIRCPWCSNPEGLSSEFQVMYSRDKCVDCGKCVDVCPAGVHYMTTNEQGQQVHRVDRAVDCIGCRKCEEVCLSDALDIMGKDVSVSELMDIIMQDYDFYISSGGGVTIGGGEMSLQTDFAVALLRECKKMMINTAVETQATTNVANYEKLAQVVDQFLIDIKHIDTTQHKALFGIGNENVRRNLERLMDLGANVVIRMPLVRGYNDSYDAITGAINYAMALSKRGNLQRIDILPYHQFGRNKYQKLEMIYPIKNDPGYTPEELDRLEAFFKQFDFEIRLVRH
Method in brief: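 Overnight anaerobic cultures of P. mirabilis or C. sporogenes, grown in BHI with 1 mM choline, were diluted and given 1 mM (trimethyl-d9)-choline plus compound at 10 μM final. After 5 h at 37° C., d9-TMA was quantified by LCMS.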

in vivo = assay: in vivo; design: species or system Sprague-Dawley rats; settings: Sprague-Dawley, rat
[2] = Pharmacokinetic study of colon contents and plasma after oral dose of conjugate; format: in vivo, male C57B3L/6 mice; settings: mouse, in vivo, po
Method: To confirm that the active agent component of the conjugate is released in the gastrointestinal tract, a pharmacokinetic study was conducted in male C57B3L/6 mice examining conjugate and active agent of concentrations in both the colon contents and plasma after oral dose of conjugate. Conjugate and active agent of were quantified by LCMS at 0 (pre-dose), 0.25, 0.5, 1, 2, 4, 6, 8, 12, and 24 hours post-dose of compound.

[3] = format: in vitro ADME; settings: 1 µM
Method: This assay was used to assess the stability of a conjugate in a large intestine.
All experiments were performed in an anaerobic chamber containing 90% nitrogen, 5% hydrogen and 5% carbon dioxide. Colonic material was resuspended as a slurry (15% w/v final concentration) in pre-reduced, anaerobically sterilized dilution blanks (Anaerobe Systems AS-908). The colonic material was then inoculated into 96 well plates containing YCFAC media (Anaerobe Systems AS-680, 6.7 μL slurry into 1 mL total media). A compound was added to each individual well to reach a final analyte concentration of 1 μM, and the material was mixed by pipetting. Each sample was removed after set timepoints (0, 120, 240, 480, 1440, 2880 minutes after initiation of the assay), quenched with acetonitrile containing internal standard, and analyzed by LCMS.

Compound: CC(=O)OC[C@H]1O[C@@H](OCC[N+](C)(C)C2CC2)[C@H](OC(C)=O)[C@@H](OC(C)=O)[C@@H]1OC(C)=O.[I-] [Compound 80, N,N-dimethyl-N-(2-{[(3R,4S,5R,6R)-3,4,5-tris(acetyloxy)-6-[(acetyloxy)methyl]oxan-2-yl]oxy}ethyl)cyclopropanaminium Iodide]
- IC50 [1]: ≥ 10 µM
- Cmax (in vivo; iv, 1 mg/kg): 7.68 µM
- IV Cmax (in vivo; iv, 1 mg/kg): 0 nM
- % F (in vivo; po, 10 mg/kg): 1.5%
- bioavailability (in vivo; po, 10 mg/kg): 0.68%
- Plasma Cmax [2]: Not
- Assay 3- Colonic Material Stability Assay % Remaining at 24 hr [3]: 25%
